Source: patent publication US20080076812A1 (priority 2006, published 2008)
Where “and” joins values, the source holds several entries; their conditions need not be identical. Identical values can stand only once.

Assay: Drug-excipient compatibility study
Conditions: binary drug/excipient mixture, 40° C./75% RH open bottle; sodium salt
Text: This study was designed to evaluate the effects of various diluents, binders, disintegrants, lubricants, buffering agents, and antioxidants on the stability of the drug substance.

## Cc1cc2c(cc1CC(=O)c1sccc1S(=O)(=O)[N-]c1onc(C)c1Cl)OCO2.[Na+] [Sitaxsentan Sodium, N-(4-chloro-3-methyl-5-isoxazolyl)-2-[2-methyl-4,5-(methylenedioxy)phenylacetyl]-thiophene-3-sulfonamide, sodium salt]
  Assay (%) T = 2 Weeks: 98.0%
  Total Related Substanes (%) T = 2 Weeks: 0.19% and 0.18%
  Total Related Substanes (%) T = 4 Weeks: 0.24% and 0.12%
